In patent publication US11739100B2, “2,3-dihydro-1h-imidazo{1,2-a}pyrimidin-5-one and this 1,2,3,4-tetrahydropyrimido{1,2-a}pyrimidin-6-one derivatives comprising a substituted morpholine, preparation thereof and pharmaceutical use thereof” (SANOFI, priority 2012, dated 2023):

Molecular target: T1, recombinant Vps34 (Homo sapiens, UniProt Q8NEB9)
T1 construct: purchased Invitrogen PV5126
Experiment: Phosphorylation of phosphatidylinositol (PI) by Vps34 in vitro, ADP detected by TR-FRET (HTRF Transcreener ADP)
Type: biochemical
Conditions: 10 μM ATP, 55 μg/ml PI, approximately 3 nM Vps34, 1 hour at ambient temperature; absolute IC50, mean of two independent experiments; read-out: IC50 activity range

T1 sequence (Q8NEB9 whole entry): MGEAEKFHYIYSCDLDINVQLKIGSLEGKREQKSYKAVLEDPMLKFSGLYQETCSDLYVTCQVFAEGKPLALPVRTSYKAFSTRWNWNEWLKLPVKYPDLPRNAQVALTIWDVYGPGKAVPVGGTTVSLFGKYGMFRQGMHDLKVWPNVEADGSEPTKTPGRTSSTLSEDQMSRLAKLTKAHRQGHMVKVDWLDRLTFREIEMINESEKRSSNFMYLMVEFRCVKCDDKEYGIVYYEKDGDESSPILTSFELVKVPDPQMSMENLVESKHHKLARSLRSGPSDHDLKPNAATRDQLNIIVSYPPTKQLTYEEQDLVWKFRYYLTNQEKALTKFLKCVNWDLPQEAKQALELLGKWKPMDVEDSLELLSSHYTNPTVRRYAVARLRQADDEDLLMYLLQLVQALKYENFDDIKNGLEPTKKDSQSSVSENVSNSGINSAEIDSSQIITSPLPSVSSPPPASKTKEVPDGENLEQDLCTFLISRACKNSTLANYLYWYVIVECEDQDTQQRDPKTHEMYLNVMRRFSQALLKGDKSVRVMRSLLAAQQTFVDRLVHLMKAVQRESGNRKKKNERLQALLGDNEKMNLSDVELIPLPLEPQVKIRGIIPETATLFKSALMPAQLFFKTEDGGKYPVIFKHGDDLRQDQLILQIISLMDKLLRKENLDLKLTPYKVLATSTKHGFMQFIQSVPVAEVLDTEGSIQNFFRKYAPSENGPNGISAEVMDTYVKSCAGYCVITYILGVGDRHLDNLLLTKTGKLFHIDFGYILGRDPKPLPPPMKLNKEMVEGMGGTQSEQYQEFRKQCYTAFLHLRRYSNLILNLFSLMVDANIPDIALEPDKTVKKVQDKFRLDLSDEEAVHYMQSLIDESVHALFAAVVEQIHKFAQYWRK

Row | SMILES | IC50
1 | O=C(CN1c2nc(N3CC4CCC(C3)O4)cc(=O)n2CC[C@H]1C(F)(F)F)c1ccccc1 [Example 163, (S)-2-(8-Oxa-3-aza-bicyclo[3.2.1]oct-3-yl)-9-(2-oxo-2-phenyl-ethyl)-8-trifluoromethyl-6,7,8,9-tetrahydro-pyrimido[1,2-a]-pyrimidin-4-one] | < 10 nM
2 | C[C@@H]1COCCN1c1nc2n(c(=O)c1F)CC[C@@H](C(F)(F)F)N2Cc1nccs1 [Example 232, (S)-3-Fluoro-2-((R)-3-methylmorpholin-4-yl)-9-thiazol-2-ylmethyl-8-trifluoromethyl-6,7,8,9-tetrahydro-pyrimido[1,2-a]-pyrimidin-4-one] | < 10 nM
3 | C[C@@H]1COCCN1c1cc(=O)n2c(n1)N(Cc1ncco1)CC[C@@H]2C(F)(F)F [Example 13, (R)-2-((R)-3-Methyl-morpholin-4-yl)-9-oxazol-2-ylmethyl-6-trifluoromethyl-6,7,8,9-tetrahydro-pyrimido[1,2-a]-pyrimidin-4-one] | 10 to 100 nM
4 | O=c1cc(N2CC3CCC(C2)O3)nc2n1CC[C@@H](C(F)(F)F)N2Cc1ccno1 [Example 164, (S)-9-Isoxazol-5-yl-methyl-2-(8-oxa-3-azabicyclo[3.2.1]oct-3-yl)-8-trifluoromethyl-6,7,8,9-tetrahydro-pyrimido[1,2-a]-pyrimidin-4-one] | 10 to 100 nM
5 | CC(C)C(F)CN1c2nc(N3CCOC[C@H]3C)c(F)c(=O)n2CC[C@H]1C(F)(F)F (single isomer, unassigned) [Example 328] | < 10 nM
6 | C[C@@H]1COCCN1c1cc(=O)n2c(n1)N(Cc1cncs1)[C@H](C(F)(F)F)CC2 [Example 87, (S)-2-((R)-3-Methyl-morpholin-4-yl)-9-thiazol-5-ylmethyl-8-trifluoromethyl-6,7,8,9-tetrahydro-pyrimido[1,2-a]-pyrimidin-4-one] | < 10 nM
7 | C[C@@H]1COCCN1c1nc2n(c(=O)c1F)[C@@H](C(F)(F)F)CCN2c1ccnc(Cl)c1 [Example 122, (R)-9-(2-Chloro-pyridin-4-yl)-3-fluoro-2-((R)-3-methyl-morpholin-4-yl)-6-trifluoromethyl-6,7,8,9-tetrahydro-pyrimido[1,2-a]-pyrimidin-4-one] | < 10 nM
8 | C[C@@H]1COCCN1c1cc(=O)n2c(n1)N(Cc1cc(Cl)ccn1)[C@H](C(F)(F)F)CC2 [Example 65, (S)-9-(4-Chloro-pyridin-2-ylmethyl)-2-((R)-3-methyl-mopholin-4-yl)-8-trifluoromethyl-6,7,8,9-tetrahydro-pyrimido[1,2-a]-pyrimidin-4-one] | < 10 nM
9 | CCC(=O)CN1CC[C@H](C(F)(F)F)n2c1nc(N1CCOC[C@H]1C)c(F)c2=O [Example 29, (R)-3-Fluoro-2-((R)-3-methylmorpholin-4-yl)-9-(2-oxobutyl)-6-trifluoromethyl-6,7,8,9-tetrahydro-pyrimido[1,2-a]-pyrimidin-4-one] | < 10 nM
10 | C[C@@H]1COCCN1c1cc(=O)n2c(n1)N(c1ccnc(C3CC3)c1)[C@H](C(F)(F)F)CC2 [Example 89, (S)-9-(2-Cyclopropyl-pyridin-4-yl)-2-((R)-3-methylmorpholin-4-yl)-8-trifluoromethyl-6,7,8,9-tetrahydro-pyrimido[1,2-a]-pyrimidin-4-one] | < 10 nM
11 | CC(C)CCC(=O)CN1c2nc(N3CCOC[C@H]3C)cc(=O)n2CC[C@H]1C(F)(F)F [Example 290, (S)-2-((R)-3-Methyl-morpholin-4-yl)-9-(5-methyl-2-oxo-hexyl)-8-trifluoromethyl-6,7,8,9-tetrahydro-pyrimido[1,2-a]-pyrimidin-4-one] | < 10 nM
12 | C[C@@H]1COCCN1c1nc2n(c(=O)c1F)CC[C@@H](C(F)(F)F)N2CC(=O)c1ccccn1 [Example 38, (S)-3-Fluoro-2-((R)-3-methylmorpholin-4-yl)-9-(2-oxo-2-pyridin-2-ylethyl)-8-trifluoromethyl-6,7,8,9-tetrahydro-pyrimido[1,2-a]-pyrimidin-4-one] | < 10 nM
13 | C[C@@H]1COCCN1c1nc2n(c(=O)c1F)CC[C@@H](C(F)(F)F)N2Cc1ccon1 [Example 296, (S)-3-Fluoro-9-isoxazol-3-ylmethyl-2-((R)-3-methyl-morpholin-4-yl)-8-trifluoromethyl-6,7,8,9-tetrahydro-pyrimido[1,2-a]-pyrimidin-4-one] | < 10 nM
14 | O=c1cc(N2CC3CCC(C2)O3)nc2n1CC[C@@H](C(F)(F)F)N2Cc1ccon1 [Example 169, (S)-9-Isoxazol-3-yl-methyl-2-(8-oxa-3-azabicyclo[3.2.1]oct-3-yl)-8-trifluoromethyl-6,7,8,9-tetrahydro-pyrimido[1,2-a]-pyrimidin-4-one] | 10 to 100 nM
15 | C[C@@H]1COCCN1c1cc(=O)n2c(n1)N(CC(=O)C1CCNCC1)[C@H](C(F)(F)F)CC2 [Example 265, (S)-2-((R)-3-Methyl-morpholin-4-yl)-9-(2-oxo-2-piperidin-4-yl-ethyl)-8-trifluoromethyl-6,7,8,9-tetrahydro-pyrimido[1,2-a]-pyrimidin-4-one] | 10 to 100 nM
16 | C[C@@H]1COCCN1c1nc2n(c(=O)c1F)CC[C@@H](C(F)(F)F)N2Cc1cscn1 [Example 69, (S)-3-Fluoro-2-((R)-3-methylmorpholin-4-yl)-9-thiazol-4-ylmethyl-8-trifluoromethyl-6,7,8,9-tetrahydro-pyrimido[1,2-a]-pyrimidin-4-one] | < 10 nM
17 | Cc1nocc1CN1c2nc(N3CCOC[C@H]3C)c(F)c(=O)n2CC[C@H]1C(F)(F)F [Example 62, (S)-3-Fluoro-9-(3-methylisoxazol-4-yl-methyl)-2-((R)-3-methylmorpholin-4-yl)-8-trifluoromethyl-6,7,8,9-tetrahydro-pyrimido[1,2-a]-pyrimidin-4-one] | < 10 nM
18 | CC(C)=CCN1c2nc(N3CCOC[C@H]3C)cc(=O)n2CC[C@H]1C(F)(F)F [Example 266, (S)-9-(3-Methyl-but-2-enyl)-2-((R)-3-methyl-morpholin-4-yl)-8-trifluoromethyl-6,7,8,9-tetrahydro-pyrimido[1,2-a]-pyrimidin-4-one] | < 10 nM
19 | C[C@@H]1COCCN1c1cc(=O)n2c(n1)N(CCc1ccc(F)cc1)[C@H](C(F)(F)F)CC2 [Example 219, (S)-9-[2-(4-Fluoro-phenyl)ethyl]-2-((R)-3-methylmorpholin-4-yl)-8-trifluoromethyl-6,7,8,9-tetrahydro-pyrimido[1,2-a]-pyrimidin-4-one] | < 10 nM
20 | C[C@@H]1COCCN1c1nc2n(c(=O)c1F)CC[C@@H](C(F)(F)F)N2CC(=O)N1CC2(CCO2)C1 [Example 333, (S)-3-Fluoro-2-((R)-3-methylmorpholin-4-yl)-9-[2-(1-oxa-6-aza-spiro[3.3]hept-6-yl)-2-oxoethyl]-8-trifluoromethyl-6,7,8,9-tetrahydropyrimido-[1,2-a]pyrimidin-4-one] | < 10 nM
21 | CC1CN(c2nc3n(c(=O)c2F)CC[C@@H](C(F)(F)F)N3CC(=O)C2CC2)CCO1 (single isomer, unassigned) [Example 322] | 10 to 100 nM
22 | C[C@@H]1COCCN1c1nc2n(c(=O)c1F)CC[C@@H](C(F)(F)F)N2Cc1nc(C(C)(C)C)no1 [Example 250, (S)-9-(3-tert-Butyl-[1,2,4]oxadiazol-5-yl-methyl)-3-fluoro-2-((R)-3-methyl-morpholin-4-yl)-8-trifluoromethyl-6,7,8,9-tetrahydro-pyrimido[1,2-a]-pyrimidin-4-one] | < 10 nM
23 | CC(=O)CN1c2nc(N3CCOC[C@H]3C)cc(=O)n2CC[C@@]1(C)C(F)(F)F [Example 327, (S)-8-Methyl-2-((R)-3-methylmorpholin-4-yl)-9-(2-oxopropyl)-8-trifluoromethyl-6,7,8,9-tetrahydropyrimido-[1,2-a]pyrimidin-4-one] | < 10 nM
24 | C[C@@H]1COCCN1c1nc2n(c(=O)c1F)CC[C@@H](C(F)(F)F)N2c1ccc(C(F)F)nc1 [Example 53, (S)-9-(6-Difluoromethylpyridin-3-yl)-3-fluoro-2-((R)-3-methylmorpholin-4-yl)-8-trifluoromethyl-6,7,8,9-tetrahydro-pyrimido[1,2-a]-pyrimidin-4-one] | < 10 nM
25 | O=c1cc(N2CCOC(CF)C2)nc2n1CC[C@@H](C(F)(F)F)N2Cc1ccccc1 (stereo partly drawn) [Example 193, (S)-9-Benzyl-2-(2-fluoromethyl-morpholin-4-yl)-8-trifluoromethyl-6,7,8,9-tetrahydro-pyrimido[1,2-a]-pyrimidin-4-one] | > 100 nM
26 | C[C@@H]1COCCN1c1nc2n(c(=O)c1F)C[C@@](C)(C(F)(F)F)N2CC(=O)C1CCOCC1 [Example 186, (S)-6-Fluoro-2-methyl-7-((R)-3-methyl-morpholin-4-yl)-1-[2-oxo-2-(tetrahydro-pyran-4-yl)ethyl]-2-trifluoromethyl-2,3-dihydro-1H-imidazo[1,2-a]-pyrimidin-5-one] | < 10 nM
27 | C[C@@H]1COCCN1c1cc(=O)n2c(n1)N(CC(=O)N(C)C)[C@H](C(F)(F)F)CC2 [Example 222, N,N-Dimethyl-2-[(S)-8-((R)-3-methyl-morpholin-4-yl)-6-oxo-2-trifluoromethyl-3,4-dihydro-2H,6H-pyrimido[1,2-a]-pyrimidin-1-yl]-acetamide] | 10 to 100 nM
28 | CC(C)Oc1ccc(N2c3nc(N4CCOC[C@H]4C)cc(=O)n3CC[C@H]2C(F)(F)F)cn1 [Example 85, (S)-9-(6-Isopropoxy-pyridin-3-yl)-2-((R)-3-methylmorpholin-4-yl)-8-trifluoromethyl-6,7,8,9-tetrahydro-pyrimido[1,2-a]-pyrimidin-4-one] | < 10 nM
29 | CC(=O)CN1CC[C@H](C(F)(F)F)n2c1nc(N1CCOC[C@H]1C)cc2=O [Example 145, (R)-2-((R)-3-Methyl-morpholin-4-yl)-9-(2-oxopropyl)-6-trifluoromethyl-6,7,8,9-tetrahydro-pyrimido[1,2-a]-pyrimidin-4-one] | 10 to 100 nM
30 | Cc1noc(CN2c3nc(N4CCOC[C@H]4C)cc(=O)n3C[C@@]2(C)C(F)(F)F)n1 [Example 208, (S)-2-Methyl-7-((R)-3-methylmorpholin-4-yl)-1-(3-methyl-[1,2,4]oxadiazol-5-yl-methyl)-2-trifluoromethyl-2,3-dihydro-1H-imidazo[1,2-a]-pyrimidin-5-one] | 10 to 100 nM
